Among the data in patent US11390609B2, “Rho-associated protein kinase inhibitor, pharmaceutical composition comprising same, and preparation method and use thereof” (BEIJING TIDE PHARMACEUTICAL CO., LTD., priority 2017, dated 2022) are IC50 values, retold here.

One assay addresses ROCK1 (Homo sapiens (Human), UniProt Q13464). In words: ROCK1 kinase IC50 assay (biological test method similar to the ROCK2 assay). Type of assay: biochemical. An outline of the steps:
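Compound dilution series (9 concentrations, top solution 10000 nM, DMSO-containing buffer) incubated 2 h at room temperature with kinase, STK-S2 substrate and ATP (5× working solutions of 1.5 µM each). Phosphorylation detected by HTRF (665/615 nm emission ratio) after 1 h; inhibition relative to full-reaction and kinase-free wells, fitted for IC50.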

The target in another assay is ROCK2 (Homo sapiens, UniProt O75116). As to the kind of experiment: ROCK2 kinase IC50 assay (CISBIO HTRF KinEASE-STK S2 kit). Type of assay: biochemical. The conditions noted are these: incubated at room temperature for 2 hours. An outline of the steps: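 HTRF KinEASE-STK S2 format with recombinant ROCK2 (1.4 ng per well), STK-S2 substrate and ATP from 5× working solutions of 1.5 μM each, run 2 h at room temperature. Nine-point dilutions from 10000 nM top concentration; 665/615 nm emission ratio normalised to no-compound and no-kinase controls, curve-fitted for IC50.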

Each structure is given as a SMILES string.

ROCK1, sequence (Q13464 whole entry, species assumed): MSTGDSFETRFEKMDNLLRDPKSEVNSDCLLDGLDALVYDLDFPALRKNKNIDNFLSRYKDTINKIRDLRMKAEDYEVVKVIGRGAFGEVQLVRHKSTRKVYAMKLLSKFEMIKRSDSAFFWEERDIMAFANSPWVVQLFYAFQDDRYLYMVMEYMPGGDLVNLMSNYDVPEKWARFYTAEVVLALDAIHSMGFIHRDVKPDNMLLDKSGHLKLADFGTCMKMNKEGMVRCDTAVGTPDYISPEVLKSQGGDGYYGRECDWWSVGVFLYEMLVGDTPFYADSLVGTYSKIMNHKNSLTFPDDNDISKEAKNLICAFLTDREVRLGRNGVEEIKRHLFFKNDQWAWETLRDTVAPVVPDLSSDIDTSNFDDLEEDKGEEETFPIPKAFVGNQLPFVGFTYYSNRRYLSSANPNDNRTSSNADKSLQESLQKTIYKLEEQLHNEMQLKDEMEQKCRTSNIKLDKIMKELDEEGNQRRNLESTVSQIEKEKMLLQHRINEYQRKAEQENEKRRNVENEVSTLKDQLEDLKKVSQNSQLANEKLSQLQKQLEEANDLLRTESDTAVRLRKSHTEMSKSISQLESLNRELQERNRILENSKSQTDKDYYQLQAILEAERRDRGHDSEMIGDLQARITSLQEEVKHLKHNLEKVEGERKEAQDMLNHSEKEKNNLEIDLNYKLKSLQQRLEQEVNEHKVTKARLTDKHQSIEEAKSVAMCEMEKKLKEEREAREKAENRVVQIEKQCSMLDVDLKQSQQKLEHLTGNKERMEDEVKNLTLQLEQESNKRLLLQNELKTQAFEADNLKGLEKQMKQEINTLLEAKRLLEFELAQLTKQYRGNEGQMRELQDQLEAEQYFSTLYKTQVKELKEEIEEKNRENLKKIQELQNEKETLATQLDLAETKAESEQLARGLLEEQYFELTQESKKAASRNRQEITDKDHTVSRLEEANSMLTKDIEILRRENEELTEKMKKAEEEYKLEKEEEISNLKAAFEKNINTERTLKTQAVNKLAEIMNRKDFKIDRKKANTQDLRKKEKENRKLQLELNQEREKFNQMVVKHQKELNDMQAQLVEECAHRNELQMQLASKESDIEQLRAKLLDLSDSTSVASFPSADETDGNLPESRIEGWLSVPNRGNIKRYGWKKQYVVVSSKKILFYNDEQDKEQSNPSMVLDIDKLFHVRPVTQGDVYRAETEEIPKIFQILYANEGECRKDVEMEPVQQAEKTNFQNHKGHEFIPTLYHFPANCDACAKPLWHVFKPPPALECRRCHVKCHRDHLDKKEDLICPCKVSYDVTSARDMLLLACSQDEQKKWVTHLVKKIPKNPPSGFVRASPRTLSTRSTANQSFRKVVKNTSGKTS

`Cn1c(C(=O)N2CC(F)(F)C2)cc2ccc(-c3ncnc(Nc4ccc(-c5cn[nH]c5)cc4)n3)cc21` [TDI01532, (6-(4-((4-(1H-pyrazol-4-yl)phenyl)amino)-1,3,5-triazin-2-yl)-1-methyl-1H-indol-2-yl)(3,3-difluoroazetidin-1-yl)methanone]: the IC50 at ROCK1 was > 10000 nM; at ROCK2 it was 49 nM.
`O=C(C1CC(F)(F)C1)N1Cc2ccc(-c3ncnc(Nc4ccc(-c5cn[nH]c5)cc4)n3)cc2C1` [TDI01536, (5-(4-((4-(1H-pyrazol-4-yl)phenyl)amino)-1,3,5-triazin-2-yl)isoindolin-2-yl)(3,3-difluorocyclobutyl)methanone]: the half-inhibitory concentration (IC50) on ROCK1 was > 10000 nM; on ROCK2 it was 105 nM.
Regarding `Cn1c(C(=O)N2CC(C(F)(F)F)C2)cc2ccc(-c3nccc(Nc4ccc(-c5cn[nH]c5)cc4)n3)cc21` [TDI01538, (6-(4-((4-(1H-pyrazol-4-yl)phenyl)amino)pyrimidin-2-yl)-1-methyl-1H-indol-2-yl)(3-(trifluoromethyl)azetidin-1-yl)methanone], the IC50 against ROCK1 was found to be 4930 nM; against ROCK2, 198 nM.
The matching figures for `O=C(C1CC2(CCNCC2)C1)N1Cc2ccc(-c3nccc(Nc4ccc(-c5cn[nH]c5)cc4)n3)cc2C1` [TDI01546, (5-(4-((4-(1H-pyrazol-4-yl)phenyl)amino)pyrimidin-2-yl)isoindolin-2-yl)(7-azaspiro[3.5]nonan-2-yl)methanone]: 1550 nM and 26 nM.
In the case of `O=C(OC1CCNC1)N1Cc2ccc(-c3nccc(Nc4ccc(-c5cn[nH]c5)cc4)n3)cc2C1` (stereo not drawn) [TDI01551, pyrrolidin-3-yl 5-(4-((4-(1H-pyrazol-4-yl)phenyl)amino)pyrimidin-2-yl)isoindoline-2-carboxylate], the IC50 is 1730 nM on ROCK1 and 31 nM against ROCK2.
For the compound `CN1CCC(OC(=O)N2Cc3ccc(-c4nccc(Nc5ccc(-c6cn[nH]c6)cc5)n4)cc3C2)C1` (stereo not drawn) [TDI01552, 1-methylpyrrolidin-3-yl5-(4-((4-(1H-pyrazol-4-yl)phenyl)amino)pyrimidin-2-yl)isoindoline-2-carboxylate], the IC50 was found to be 2950 nM against ROCK1 and 51 nM on ROCK2.
Take `O=C(N1CCN(C2COC2)CC1)N1Cc2ccc(-c3nccc(Nc4ccc(-c5cn[nH]c5)cc4)n3)cc2C1` [TDI01555, (5-(4-((4-(1H-pyrazol-4-yl)phenyl)amino)pyrimidin-2-yl)isoindolin-2-yl)(4-(oxetan-3-yl)piperazin-1-yl)methanone]: the IC50 against ROCK1 is > 10000 nM; at ROCK2, 140 nM.
As to `CC(C)(C)OC(=O)N1Cc2ccc(-c3nccc(Nc4ccc(-c5cn[nH]c5)cc4)n3)cc2C1` [TDI01557B, tert-butyl 5-(4-((4-(1H-pyrazol-4-yl)phenyl)amino)pyrimidin-2-yl)isoindoline-2-carboxylate], the IC50 against ROCK1 is > 10000 nM; against ROCK2, 49 nM.
As for `O=C(OCc1ccccc1)N1Cc2ccc(-c3nccc(Nc4ccc(-c5cn[nH]c5)cc4)n3)cc2C1` [TDI01559, benzyl 5-(4-((4-(1H-pyrazol-4-yl)phenyl)amino)pyrimidin-2-yl)isoindolin-2-carboxylate], the IC50 against ROCK1 was > 10000 nM; at ROCK2, 170 nM.
The like results for `O=C(C1CCOCC1)N1Cc2ccc(-c3nccc(Nc4ccc(-c5cn[nH]c5)cc4)n3)cc2C1` [TDI01560, (5-(4-((4-(1H-pyrazol-4-yl)phenyl)amino)pyrimidin-2-yl)isoindolin-2-yl)(tetrahydro-2H-pyran-4-yl)methanone] were, in that order, > 10000 nM and 83 nM.
On to `O=C(C1CC(O)C1)N1Cc2ccc(-c3nccc(Nc4ccc(-c5cn[nH]c5)cc4)n3)cc2C1` (stereo not drawn) [TDI01561, (5-(4-((4-(1H-pyrazol-4-yl)phenyl)amino)pyrimidin-2-yl)isoindolin-2-yl)(3-hydroxycyclobutyl) methanone], for which the IC50 on ROCK1 is > 10000 nM; at ROCK2, 205 nM.
With `O=C(OC1CC(F)(F)C1)N1Cc2ccc(-c3nccc(Nc4ccc(-c5cn[nH]c5)cc4)n3)cc2C1` [TDI01562, 3,3-difluorocyclobutyl 5-(4-((4-(1H-pyrazol-4-yl)phenyl)amino)pyrimidin-2-yl)isoindoline-2-carboxylate], the figures for the IC50 against ROCK1 and at ROCK2 were > 10000 nM and 23 nM, respectively.
For `O=C(C1CC(F)(F)C1)N1Cc2ccc(-c3nc(Nc4ccc(-c5cn[nH]c5)cc4)c4cc[nH]c4n3)cc2C1` [TDI01565, (5-(4-((4-(1H-pyrazol-4-yl)phenyl)amino)-7H-pyrrolo[2,3-d]pyrimidin-2-yl)isoindolin-2-yl)(3,3-difluorocyclobutyl)methanone], the results for the IC50 against ROCK1 and at ROCK2 were > 10000 nM and 57 nM, respectively.
`NC(=O)c1cnc(-c2ccc3c(c2)CN(C(=O)C2CC(F)(F)C2)C3)nc1Nc1ccc(-c2cn[nH]c2)cc1` [TDI01567, 4-((4-(1H-pyrazol-4-yl)phenyl)amino)-2-(2-(3,3-difluorocyclobutane-1-carbonyl)isoindolin-5-yl)pyrimidin-5-carboxamide]: the IC50 was > 10000 nM against ROCK1 and 65 nM against ROCK2.
The like results for `O=C(O)c1cnc(-c2ccc3c(c2)CN(C(=O)C2CC(F)(F)C2)C3)nc1Nc1ccc(-c2cn[nH]c2)cc1` [TDI01567C] were, in that order, > 10000 nM and 29 nM.
As for `O=C(C1CC(F)(F)C1)N1CCc2ccc(-c3nccc(Nc4ccc5[nH]ncc5c4)n3)cc2C1` [TDI01575, (7-(4-((1H-indazol-5-yl)amino)pyrimidin-2-yl)-3,4-dihydroisoquinolin-2(1H)-yl)(3,3-difluorocyclobutyl) methanone], the results for the IC50 against ROCK1 and against ROCK2 were > 10000 nM and 169 nM, respectively.
For the compound `O=C(c1cc2ccc(-c3ncnc(Nc4ccc(-c5cn[nH]c5)cc4)n3)cc2[nH]1)N1CC(F)(F)C1` [TDI01581, (6-(4-((4-(1H-pyrazol-4-yl)phenyl)amino)-1,3,5-triazin-2-yl)-1H-indol-2-yl)(3,3-difluoroazetidin-1-yl)methanone], the IC50 against ROCK1 is > 10000 nM; on ROCK2, 28 nM.
`CC(=O)N1Cc2nc(-c3ccc4c(c3)CN(C(=O)C3CC(F)(F)C3)C4)nc(Nc3ccc(-c4cn[nH]c4)cc3)c2C1` [TDI01587, 1-(4-((4-(1H-pyrazol-4-yl)phenyl)amino)-2-(2-(3,3-difluorocyclobutane-1-carbonyl)isoindolin-5-yl)-5,7-dihydro-6H-pyrrolo[3,4-d]pyrimidin-6-yl)ethan-1-one]: the concentration for half-maximal inhibition (IC50) is > 10000 nM on ROCK1 and 25 nM at ROCK2.
In the case of `O=C(C1CC(F)(F)C1)N1Cc2ccc(-c3ncc(F)c(Nc4ccc5[nH]ncc5c4)n3)cc2C1` [TDI01589, (5-(4-((1H-indazol-5-yl)amino)-5-fluoropyrimidin-2-yl)isoindolin-2-yl)(3,3-difluorocyclobutyl)methnone], the IC50 at ROCK1 was > 10000 nM; at ROCK2, 39 nM.
For the compound `O=C1c2cc(-c3ncc(F)c(Nc4ccc(-c5cn[nH]c5)cc4)n3)ccc2CN1CC1CC(F)(F)C1` [TDI01590, 6-(4-((4-(1H-pyrazol-4-yl)phenyl)amino)-5-fluoropyrimidin-2-yl)-2-((3,3-difluorocyclobutyl)methyl)isoindolin-1-one], the figures for the IC50 against ROCK1 and on ROCK2 were > 10000 nM and 266 nM, respectively.
On to `O=C(C1CC(F)(F)C1)N1CCc2cc(-c3ncc(F)c(Nc4ccc(-c5cn[nH]c5)cc4)n3)ccc2C1` [TDI01596, (6-(4-((4-(1H-pyrazol-4-yl)phenyl)amino)-5-fluoropyrimidin-2-yl)-3,4-dihydroisoquinolin-2(1H)-yl)(3,3-difluorocyclobutyl)methanone], for which the IC50 is > 10000 nM on ROCK1 and 275 nM against ROCK2.
As for `O=C(CC1CCOC1)N1Cc2ccc(-c3nccc(Nc4ccc(-c5cn[nH]c5)cc4)n3)cc2C1` (stereo not drawn) [TDI01597B, 1-(5-(4-((4-(1H-pyrazol-4-yl)phenyl)amino)pyrimidin-2-yl)isoindolin-2-yl)-2-(tetrahydrofuran-3-yl)ethan-1-one], the 50% inhibitory concentration (IC50) at ROCK1 is > 10000 nM; at ROCK2, 123 nM.
For `O=C(C1CC(F)(F)C1)N1Cc2ccc(-c3ncc(F)c(Nc4ccc(-c5cn[nH]c5)cc4F)n3)cc2C1` [TDI01598, (3,3-difluorocyclobutyl)(5-(5-fluoro-4-((2-fluoro-4-(1H-pyrazol-4-yl)phenyl)amino)pyrimidin-2-yl)isoindolin-2-yl)methanone], the IC50 was > 10000 nM at ROCK1 and 216 nM against ROCK2.
The matching figures for `O=C(OC1CC(F)(F)C1)N1Cc2ccc(-c3ncc(F)c(Nc4ccc5[nH]ncc5c4)n3)cc2C1` [TDI01613, 3,3-difluorocyclobutyl 5-(4-((1H-indazol-5-yl)amino)-5-fluoropyrimidin-2-yl)isoindoline-2-carboxylate]: > 10000 nM and 27 nM.
As to `O=C(C1CC(F)(F)C1)N1CCc2cc(-c3ncc(F)c(Nc4ccc(-c5cn[nH]c5)cc4)n3)ccc21` [TDI01618A, (5-(4-((4-(1H-pyrazol-4-yl)phenyl)amino)-5-fluoropyrimidin-2-yl)indolin-1-yl)(3,3-difluorocyclobutyl) methanone], the IC50 against ROCK1 was > 10000 nM; against ROCK2, 129 nM.
As to `O=C(OC1CC(F)(F)C1)N1CCc2cc(-c3nccc(Nc4ccc(-c5cn[nH]c5)cc4)n3)ccc2C1` [TDI01621, 3,3-difluorocyclobutyl 6-(4-((4-(1H-pyrazol-4-yl)phenyl)amino)pyrimidin-2-yl)-3,4-dihydroisoquinoline-2(1H)-carboxylate], the IC50 was > 10000 nM against ROCK1 and 219 nM at ROCK2.
For `CC1(C(=O)N2Cc3ccc(-c4ncc(F)c(Nc5ccc(-c6cn[nH]c6)cc5)n4)cc3C2)CC(F)(F)C1` [TDI01628, (5-(4-((4-(1H-pyrazol-4-yl)phenyl)amino)-5-fluoropyrimidin-2-yl)isoindolin-2-yl)(3,3-difluoro-1-methylcyclobutyl) methanone], the IC50 against ROCK1 was > 10000 nM; on ROCK2, 28 nM.
